Assay results reported in patent publication US20170275666A1, “Methods for Preparing Rebaudioside I and Uses” (The Coca-Cola Company, priority 2014, published 2017).
Substitutions are numbered along the chain they refer to. Where “and” joins values, the source holds several entries; their conditions need not be identical. Equal values may be shown once.

Columns and labels:
[1] = Sensory characteristics of rebaudioside I compared to rebaudioside M (taste panel); format: in vivo; settings: 400 ppm in water, approximately 4° C., seven panelists
Description: Rebaudioside I was evaluated to determine its sensory profile, including in comparison to rebaudioside M.
Samples were prepared at a concentration of 400 ppm in a water matrix. Analysis to determine the actual concentration of the samples was preformed.
Seven panelists participated in testing of rebaudioside I and rebaudioside M. Samples were served at approximately 4° C. Panelists were instructed to take 1 sip of the sample (10 mL), hold in mouth for 5 seconds, expectorate and rate the taste attributes, as described below. A 5 minute break was placed between each sample and panelist were instructed to cleanse their palates with at least 1 bite of an unsalted cracker and 2 sips of filtered water. Samples were randomized and each sample was present in replicate in the session.
Attributes evaluated included: sweet taste intensity (maximum level of sweeteness in mouth during 5 seconds); bitter taste intensity (maximum level of bitterness in mouth during 5 seconds); overall maximum sweet intensity (maximum sweet intensity experienced from time sip is taken up to 1 minute); overall maximum bitter intensity (maximum bitter intensity experienced from time sip is taken up to 1 minute); other intensity (intensity of any taste, aromatic or mouth feel other than sweet and bitter (e.g., metallic, plastic, licorice, etc.); sweet linger intensity (sweet intensity 1 minute after expectoring the sample); and bitter aftertaste intensity (bitter intensity one minute after expectoring the sample).
Fishers LSD was used to compare significant differences between the mean scores.

[2] = Taste properties of beverage formulations (flavored black tea, enhanced water, lemon-lime flavored sparkling beverage); format: in vivo
Description: Reb I levels are evaluated in an zero calorie Lemon-lime-flavored sparking beverage base to determine the effect of increasing sweetness. Samples of the Lemon-lime-flavored sparkling beverage with Reb I in amounts between 400 and 750 ppm (in 50 ppm increments) and 3.5% allulose are prepared. […] Samples having 550 ppm and 600 ppm Reb I are found to be the closest in sweetness level to an 10.0 Brix HFCS sweetened Lemon-lime flavored sparkling beverage formulation.

[3] = Directed evolution of UGT76G1, conversion of Rebaudioside D to Rebaudioside M (round 1); format: biochemical; settings: 0.5 mM Rebaudioside D, 2.5 mM UDP-Glucose, 100 μL fresh lysate, 30° C., pH 7.2
In short: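 UGT76G1 variants carrying 3-5 designed mutations were expressed in E. coli BL21(DE3) (pET30a+, 44 h at 20° C) and lysed. Lysate was reacted with 0.5 mM Reb D, 2.5 mM UDP-glucose, 3 mM MgCl2 in 50 mM phosphate pH 7.2 at 30° C; HPLC-CAD sampling at 2, 4, 7, 24 h gave conversion and initial rate.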

[4] = Activity of in-vivo preparations of UGT91D2, transformation of Rubusoside to Stevioside; format: biochemical; settings: per mL of lysate, 30° C., pH 7.2
Description: Activity tests were performed at 5 mL scale with 1000 μL of lysate for the transformation of Rubusoside to Stevioside using 0.5 mM of substrate, 2.5 mM of UDP-Glucose and 3 mM MgCl2 in 50 mM Sodium Phosphate buffer at pH 7.2. Samples were taken and analyzed by HPLC.

C=C1C[C@@]23CC[C@H]4[C@@](C)(CCC[C@@]4(C)C(=O)OC4OC(CO)C(O)C(OC5OC(CO)C(O)C(O)C5O)C4O)[C@@H]2CCC1(OC1OC(CO)C(O)C(OC2OC(CO)C(O)C(O)C2O)C1OC1OC(CO)C(O)C(O)C1O)C3 (stereo partly shown) [Reb I]
Bitter Aftertaste Intensity [1]: 1.3
Bitter Taste Intensity [1]: 1.4
Other Intensity [1]: 1.3
Overall Max Bitterness Intensity [1]: 2.1
Overall Max Sweetness Intensity [1]: 7.2
Sweet Linger Intensity [1]: 3.5
Sweet Taste Intensity [1]: 5.9
Overall Max Sweetness Intensity ([1]; listed as Rebaudioside I): lower
Sweet Linger Intensity ([1]; listed as Rebaudioside I): lower
Sweet Taste Intensity ([1]; listed as Rebaudioside I): lower
taste properties compared to Reb A drink ([2]; flavored zero calorie black tea drink, 275 ppm): much cleaner in finish with less sweetness linger and a more rounded overall sweetness profile
Reb I concentration closest in sweetness level to 10.0 Brix HFCS sweetened Lemon-lime flavored sparkling beverage ([2]; zero calorie Lemon-lime-flavored sparkling beverage with 3.5% allulose): 550 ppm and 600 ppm
taste compared to Reb A-containing formulations ([2]; zero calorie Lemon-lime-flavored sparkling beverage, 400 to 750 ppm Reb I and 3.5% allulose): significantly better than comparable Reb A-containing formulations
taste properties compared to Reb A drink ([2]; zero calorie enhanced water drink, 200 ppm): cleaner in finish and has a reduced sweetness linger and a more rounded overall sweetness taste quality

C=C1C[C@@]23CC[C@H]4[C@@](C)(CCC[C@@]4(C)C(=O)O[C@@H]4O[C@H](CO)[C@@H](O)[C@H](O[C@@H]5O[C@H](CO)[C@@H](O)[C@H](O)[C@H]5O)[C@H]4O[C@@H]4O[C@H](CO)[C@@H](O)[C@H](O)[C@H]4O)[C@@H]2CC[C@]1(O[C@@H]1O[C@H](CO)[C@@H](O)[C@H](O[C@@H]2O[C@H](CO)[C@@H](O)[C@H](O)[C@H]2O)[C@H]1O[C@@H]1O[C@H](CO)[C@@H](O)[C@H](O)[C@H]1O)C3 [Reb M, Rebaudioside M, reference compound]
Bitter Aftertaste Intensity [1]: 0.8
Bitter Taste Intensity [1]: 1.0
Other Intensity [1]: 0.9
Overall Max Bitterness Intensity [1]: 1.6
Overall Max Sweetness Intensity [1]: 8.0
Sweet Linger Intensity [1]: 4.9
Sweet Taste Intensity [1]: 7.4

B1: UGT76G1var91: UGT76G1 variant, mutations E224A_L246F_T263S_F265I_Q342K (protein, UniProt Q6VAB4 1-458, looked up, variant E224A L246F T263S F265I Q342K)
UDP-glycosyltransferase 76G1: MENKTETTVRRRRRIILFPVPFQGHINPILQLANVLYSKGFSITIFHTNFNKPKTSNYPHFTFRFILDNDPQDERISNLPTHGPLAGMRIPIINEHGADELRRELELLMLASEEDEEVSCLITDALWYFAQSVADSLNLRRLVLMTSSLFNFHAHVSLPQFDELGYLDPDDKTRLEEQASGFPMLKVKDIKSAYSNWQILKEILGKMIKQTKASSGVIWNSFKALEESELETVIREIPAPSFLIPFPKHLTASSSSLLDHDRSVIQWLDQQPPSSVLYVSFGSTSEVDEKDFLEIARGLVDSKQSFLWVVRPGFVKGSTWVEPLPDGFLGERGRIVKWVPQKEVLAHGAIGAFWTHSGWNSTLESVCEGVPMIFSDFGLDQPLNARYMSDVLKVGVYLENGWERGEIANAIRRVMVDEEGEYIRQNARVLKQKADVSLMKGGSSYESLESLVSYISSL
Conversion Reb D to Reb M after 24 h (%) [3]: 1.2%
initial rate (Reb M area/min) [3]: 2.3E+05 Reb M area/min

B2: UGT76G1var92: UGT76G1 variant, mutations K303G_S357N_V366I_V394I_I407V (protein, UniProt Q6VAB4 1-458, looked up, variant K303G S357N V366I V394I I407V)
UDP-glycosyltransferase 76G1: B1 UDP-glycosyltransferase 76G1 with A224E, F246L, S263T, I265F, K303G, K342Q, S357N, V366I, V394I, I407V
Conversion Reb D to Reb M after 24 h (%) [3]: 1.6%
initial rate (Reb M area/min) [3]: 3.6E+05 Reb M area/min

B3: UGT76G1var93: UGT76G1 variant, mutations I43V_Q266E_S375M_S389E_V394I (protein, UniProt Q6VAB4 1-458, looked up, variant I43V Q266E S375M S389E V394I)
UDP-glycosyltransferase 76G1: B1 UDP-glycosyltransferase 76G1 with I43V, A224E, F246L, S263T, I265F, Q266E, K342Q, S375M, S389E, V394I
Conversion Reb D to Reb M after 24 h (%) [3]: 1.8%
initial rate (Reb M area/min) [3]: 4.5E+05 Reb M area/min

B4: UGT76G1var96: UGT76G1 variant, mutations F22L_E229A_L243P_F377C_A385T (protein, UniProt Q6VAB4 1-458, looked up, variant F22L E229A L243P F377C A385T)
UDP-glycosyltransferase 76G1: B1 UDP-glycosyltransferase 76G1 with F22L, A224E, E229A, L243P, F246L, S263T, I265F, K342Q, F377C, A385T
Conversion Reb D to Reb M after 24 h (%) [3]: 1.2%
initial rate (Reb M area/min) [3]: 2.7E+05 Reb M area/min

B5: UGT76G1var95: UGT76G1 variant, mutations A33G_I295M_K303G_I335V_A385T (protein, UniProt Q6VAB4 1-458, looked up, variant A33G I295M K303G I335V A385T)
UDP-glycosyltransferase 76G1: B1 UDP-glycosyltransferase 76G1 with A33G, A224E, F246L, S263T, I265F, I295M, K303G, I335V, K342Q, A385T
Conversion Reb D to Reb M after 24 h (%) [3]: −1.3%
initial rate (Reb M area/min) [3]: −1.7E+05 Reb M area/min

B6: UGT76G1var7: UGT76G1 variant, mutations F22L_I43V_A239V (protein, UniProt Q6VAB4 1-458, looked up, variant F22L I43V A239V)
UDP-glycosyltransferase 76G1: B1 UDP-glycosyltransferase 76G1 with F22L, I43V, A224E, A239V, F246L, S263T, I265F, K342Q
Conversion Reb D to Reb M after 24 h (%) [3]: 0.2%
initial rate (Reb M area/min) [3]: −6.0E+04 Reb M area/min

B7: UGT91D2: UDP-glucosyltransferase (Genbank ACE87855.1) produced in E. coli, tested as lysate (protein, UniProt B3VI56 1-473, looked up)
UDP-glycosyltransferase 91D2: MATSDSIVDDRKQLHVATFPWLAFGHILPYLQLSKLIAEKGHKVSFLSTTRNIQRLSSHISPLINVVQLTLPRVQELPEDAEATTDVHPEDIPYLKKASDGLQPEVTRFLEQHSPDWIIYDYTHYWLPSIAASLGISRAHFSVTTPWAIAYMGPSADAMINGSDGRTTVEDLTTPPKWFPFPTKVCWRKHDLARLVPYKAPGISDGYRMGLVLKGSDCLLSKCYHEFGTQWLPLLETLHQVPVVPVGLLPPEVPGDEKDETWVSIKKWLDGKQKGSVVYVALGSEVLVSQTEVVELALGLELSGLPFVWAYRKPKGPAKSDSVELPDGFVERTRDRGLVWTSWAPQLRILSHESVCGFLTHCGSGSIVEGLMFGHPLIMLPIFGDQPLNARLLEDKQVGIEIPRNEEDGCLTKESVARSLRSVVVEKEGEIYKANARELSKIYNDTKVEKEYVSQFVDYLEKNTRAVAIDHES
modifications: E. coli lysate
notes: UDP-glucosyltransferase (Genbank ACE87855.1) produced in E. coli, tested as lysate
Transformation activity Rubusoside to Stevioside ([4]; plasmid pET30a+, expression strain ArcticExpress (DE3)): 21 mU mL^−1
Transformation activity Rubusoside to Stevioside ([4]; plasmid pET30a+, expression strain Tuner (DE3)): 28 mU mL^−1
Transformation activity Rubusoside to Stevioside ([4]; plasmid pMAL, expression strain ArcticExpress): 60 mU mL^−1
Transformation activity Rubusoside to Stevioside ([4]; plasmid pMAL, expression strain BL21): 9 mU mL^−1
